The term EC50 denotes the concentration at which the effect is half-maximal. By Emax is commonly meant the size of the effect at its maximum, as opposed to the concentration needed.

The source of these data is ChEMBL document CHEMBL4610056, “Development of novel small molecules for the treatment of ALS” (Bioorg Med Chem Lett, 2020).

A short description of experiment [1]: Activation of NF-kappaB (unknown origin). More on the design: species or system Homo sapiens.
Experiment [2] is described as follows: Activation of NF-kappaB (unknown origin) relative to control. The settings on record: Homo sapiens.
For experiment [3], the species on record is Homo sapiens. Put plainly: Potency index, ratio of SRI-22818 EC50 to test compound EC50 for activation of NF-kappaB (unknown origin).

Regarding `O=C(c1ccc(F)c(F)c1)c1ccn(-c2ccccc2F)c1`, in experiment [1] (read-out: EC50), the EC50 was 5.84 µM. The compound also gave an Emax in experiment [2] of 13%.

In the case of `O=C(c1ccc2c(c1)OCO2)c1c[nH]c2cc(Br)ccc12`, the EC50 in experiment [1] (read-out: EC50) worked out at 1 µM. The same compound showed a maximal response (Emax) in experiment [2] of 11.2%. The like results for `O=C(/C=C\Nc1ccccc1F)c1ccc2c(c1)OCO2` were, in that order, 0.32 µM and 22%. The like results for `COc1cccnc1N/C=C\C(=O)c1ccc2c(c1)OCO2` were, in that order, 3.3 µM and 12%. The matching figures for `O=C(/C=C\Nc1ccccc1Cl)c1ccc2c(c1)OCO2`: 0.5 µM and 24%. Take `O=C(/C=C\Nc1ccccc1)c1ccc2c(c1)OCO2`: in experiment [1] (read-out: EC50), the EC50 was found to be 0.4 µM. Moreover, the Emax in experiment [2] was 11%. As for `O=C(c1ccc2c(c1)OCO2)c1ccccc1Nc1ccccc1Br`, the EC50 result in experiment [1] was “Not Active”. Take `O=C(c1ccc2c(c1)OCO2)c1c[nH]c2cnccc12`: the EC50 result in experiment [1] is listed as “Not Active”.

In the case of `O=C(/C=C\Nc1ccccc1Br)c1ccc2c(c1)OCO2`, the concentration giving a half-maximal response (EC50) in experiment [1] (read-out: EC50) amounted to 0.5 µM. In addition, the Emax in experiment [2] is 26%.

For `Cc1ccc(C(=O)c2ccn(-c3ccccc3F)c2)cc1C`, in experiment [1] (read-out: EC50), the EC50 was determined as 11.9 µM. The compound also came in with an Emax in experiment [2] of 19.9%. As for `O=C(/C=C\Nc1ccccc1Br)c1ccccn1`, the 50% effective concentration (EC50) result in experiment [1] is reported as “Not Active”. The same measure, in the same setting: to `O=C(/C=C\Nc1ccccc1Cl)c1ccccn1` belongs “Not Active”. For `Cc1ccccc1N/C=C\C(=O)c1ccccn1`, the EC50 in experiment [1] (read-out: EC50) worked out at 0.3 µM. This compound also displayed an Emax in experiment [2] of 17%.

On to `O=C(c1ccccn1)c1c[nH]c2c(Br)cccc12`, for which the EC50 result in experiment [1] is reported as “Not Active”. On to `O=C(c1ccncc1)c1c[nH]c2c(Br)cccc12`, for which the concentration giving a half-maximal response (EC50) result in experiment [1] is listed as “Not Active”. In the case of `O=C(/C=C\Nc1ncccc1C(F)(F)F)c1ccc2c(c1)OCO2`, the EC50 in experiment [1] (read-out: EC50) turned out to be 0.8 µM. The Emax in experiment [2] worked out at 23%. In the case of `O=C(c1ccc2c(c1)OCO2)c1ccn(-c2ccccc2Cl)c1`, the EC50 in experiment [1] (read-out: EC50) is 7.8 µM. Further, the maximal effect (Emax) in experiment [2] was 15.1%. The matching figures for `O=C(c1ccc2c(c1)OCO2)c1ccn(-c2ccc(F)cc2)c1`: 12.9 µM and 13.2%. For the compound `O=C(CCNc1ccccc1Br)c1ccc2c(c1)OCO2`, the EC50 entry in experiment [1] is “Not Active”.

Take `COc1cccnc1N/C=C\C(=O)c1ccccn1`: the EC50 in experiment [1] (read-out: EC50) came to 0.3 µM. This compound yielded a maximal effect (Emax) in experiment [2] of 24%. The matching figures for `Cc1cccc2c(C(=O)c3ccc4c(c3)OCO4)c[nH]c12`: 43.2 µM and 23%. `O=C(c1ccc2c(c1)OCO2)c1c[nH]c2cccc(Br)c12`: the 50% effective concentration (EC50) result in experiment [1] is “Not Active”. In the case of `COc1ccccc1N/C=C\C(=O)c1ccc2c(c1)OCO2`, the half-maximal effective concentration (EC50) in experiment [1] (read-out: EC50) came to 3.9 µM. In addition, in experiment [2], the Emax stood at 14%. Take `O=C(c1ccc(Cl)c(Cl)c1)c1c[nH]c2cc(Br)ccc12`: the EC50 entry in experiment [1] is given as “Not Active”. Same read-out and setting: to `Cn1cc(C(=O)c2ccc3c(c2)OCO3)c2cccc(Br)c21` belongs “Not Active”. For `Cc1cccnc1N/C=C\C(=O)c1ccc2c(c1)OCO2`, the half-maximal effective concentration (EC50) in experiment [1] (read-out: EC50) was found to be 0.3 µM. This compound also displayed an Emax in experiment [2] of 22%. The like results for `O=C(c1ccc(Cl)c(Cl)c1)c1ccn(-c2ccccc2F)c1` were, in that order, 7.71 µM and 8.3%. Take `O=C(/C=C\Nc1ncccc1F)c1ccccn1`: in experiment [1] (read-out: EC50), the EC50 came to 0.9 µM. In experiment [2], this compound gave an Emax of 14%.

With `O=C(c1ccc2c(c1)OCO2)c1ccn(-c2cccc(F)c2)c1`, in experiment [1] (read-out: EC50), the 50% effective concentration (EC50) was 17.7 µM. This compound returned an Emax in experiment [2] of 13.8%.

As for `O=C(c1ccc2c(c1)OCO2)c1ccn(-c2ccccc2Br)c1`, the concentration for a half-maximal effect (EC50) entry in experiment [1] is listed as “Not Active”. Consider `O=C(c1ccc2c(c1)OCO2)c1c[nH]c2ccc(Br)cc12`, for which the EC50 in experiment [1] (read-out: EC50) amounted to 4.5 µM. The same compound yielded a maximal response (Emax) in experiment [2] of 3%. In the case of `O=C(c1ccc2c(c1)OCO2)c1c[nH]c2c(F)cccc12`, in experiment [1] (read-out: EC50), the EC50 amounted to 13.4 µM. In experiment [2], this compound displayed an Emax of 18%. For the compound `O=C(c1ccc(F)c(F)c1)c1c[nH]c2cc(Br)ccc12`, the 50% effective concentration (EC50) result in experiment [1] is given as “Not Active”.

For the compound `O=C(c1ccccc1)c1c[nH]c2c(Br)cccc12`, the EC50 result in experiment [1] was “Not Active”. As for `Cc1ccccc1N/C=C\C(=O)c1ccc2c(c1)OCO2`, the EC50 in experiment [1] (read-out: EC50) is 0.8 µM. In experiment [2], this compound yielded a maximal effect (Emax) of 24%. The like results for `Fc1ccccc1-n1ccc(CNc2ccc3c(c2)OCO3)c1` were, in that order, 15 µM and 10.4%.

`O=C(c1ccc2c(c1)OCO2)c1c[nH]c2cc(F)ccc12`: the EC50 in experiment [1] (read-out: EC50) is 4.4 µM. Besides, the Emax in experiment [2] was found to be 8.6%. The matching figures for `Cc1ccccc1-n1ccc(C(=O)c2ccc3c(c2)OCO3)c1`: 22.4 µM and 10%. The matching figures for `COc1ccccc1N/C=C\C(=O)c1ccccn1`: 0.2 µM and 8%. For `O=C(/C=C\Nc1ccccc1C(F)(F)F)c1ccc2c(c1)OCO2`, the EC50 in experiment [1] (read-out: EC50) came out at 3.1 µM. In experiment [2], this compound gave an Emax of 8%. For the compound `COc1ccc(C(=O)c2c[nH]c3cc(Br)ccc23)cc1OC`, the 50% effective concentration (EC50) entry in experiment [1] was “Not Active”.

With `O=C(c1ccc2c(c1)OCO2)c1c[nH]c2cc(Cl)ccc12`, the EC50 in experiment [1] (read-out: EC50) came to 1.2 µM. The compound also came in with a maximum response (Emax) in experiment [2] of 13.2%. Consider `O=C(/C=C\Nc1ccccc1C(F)(F)F)c1ccccn1`, for which the EC50 in experiment [1] (read-out: EC50) was 1.4 µM. In addition, the maximum response (Emax) in experiment [2] was 16%. The matching figures for `O=C(c1ccc2c(c1)OCO2)c1c[nH]c2c(Br)cccc12`: 21.4 µM and 18%. The matching figures for `O=C(c1ccc2c(c1)OCO2)c1ccn(-c2ccccc2F)c1`: 3.21 µM and 12.5%. The matching figures for `O=C(/C=C\Nc1ccccc1F)c1ccccn1`: 1 µM and 20%. Take `Cc1ccc(C(=O)c2c[nH]c3cc(Br)ccc23)cc1C`: in experiment [1], the EC50 entry is “Not Active”.

As to `O=C(/C=C\Nc1ncccc1C(F)(F)F)c1ccccn1`, the concentration for a half-maximal effect (EC50) in experiment [1] (read-out: EC50) was found to be 0.7 µM. In experiment [2], this compound returned an Emax of 16%.

Consider `O=C(/C=C\Nc1ncccc1F)c1ccc2c(c1)OCO2`, for which the half-maximal effective concentration (EC50) in experiment [1] (read-out: EC50) amounted to 0.1 µM. Further, in experiment [3], the Ratio EC50 came to 5. This compound also came in with an Emax in experiment [2] of 17%. With `O=C(Nc1ccc2c(c1)OCO2)c1ccn(-c2ccccc2F)c1`, the EC50 in experiment [1] (read-out: EC50) stood at 11.3 µM. Also, the maximal effect (Emax) in experiment [2] stood at 34%.

On to `Cc1cccnc1N/C=C\C(=O)c1ccccn1`, for which the EC50 in experiment [1] (read-out: EC50) is 0.9 µM. Further, the Emax in experiment [2] amounted to 22%.
